Test results reported in ChEMBL document CHEMBL4020831, “Discovery of GDC-0853: A Potent, Selective, and Noncovalent Bruton's Tyrosine Kinase Inhibitor in Early Clinical Development” (J Med Chem, 2018).

Legend:
[1] = molecular target: T1, Tyrosine-protein kinase BTK (Homo sapiens, UniProt Q06187); test: Inhibition of human recombinant C-terminal polyhistidine tagged BTK (1 to 659 residues)-mediated synthetic peptide substrate phosphorylation expressed in baculovirus-infected insect cells
[2] = Clearance in human liver microsomes at 1 uM incubated up to 60 mins by LC-MS/MS method; assay type: ADME, microsome
[3] = Permeability across apical to basolateral in MDCK1 cells; assay type: ADME, cell-based, Canis lupus familiaris; settings: dog, MDCK; read-out: permeability
[4] = molecular target: T1, Tyrosine-protein kinase BTK
Description: Inhibition of BTK in human whole blood-derived CD19+ B cells assessed as suppression of anti-IgM stimulated-CD69 expression preincubated for 1 hr followed by IgM stimulation for 18 hrs by FACS analysis

[5] = physchem; settings: buffer, pH 7.4
[6] = in vitro; settings: dog, MDCK
Description: Efflux ratio of permeability in MDCK1 cells

T1 sequence (Q06187 whole entry, the tested form may be a part): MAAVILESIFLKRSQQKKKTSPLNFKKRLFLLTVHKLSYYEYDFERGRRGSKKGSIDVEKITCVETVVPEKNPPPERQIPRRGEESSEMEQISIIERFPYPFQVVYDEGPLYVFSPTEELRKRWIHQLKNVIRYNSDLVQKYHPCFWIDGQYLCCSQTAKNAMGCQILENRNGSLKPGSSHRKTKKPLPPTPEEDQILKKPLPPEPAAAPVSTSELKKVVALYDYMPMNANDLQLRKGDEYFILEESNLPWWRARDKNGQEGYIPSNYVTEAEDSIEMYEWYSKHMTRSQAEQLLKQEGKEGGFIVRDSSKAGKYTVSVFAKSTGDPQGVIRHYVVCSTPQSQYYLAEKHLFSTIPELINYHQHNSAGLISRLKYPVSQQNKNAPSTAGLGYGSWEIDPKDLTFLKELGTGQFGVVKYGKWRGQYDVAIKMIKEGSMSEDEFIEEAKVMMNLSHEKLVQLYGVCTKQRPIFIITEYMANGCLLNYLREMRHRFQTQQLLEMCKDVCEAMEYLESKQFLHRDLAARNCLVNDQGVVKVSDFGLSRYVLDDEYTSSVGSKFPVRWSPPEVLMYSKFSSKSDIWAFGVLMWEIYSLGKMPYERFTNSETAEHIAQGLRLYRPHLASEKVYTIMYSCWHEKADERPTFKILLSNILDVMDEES

| SMILES | Ki [1] | CLhep predicted at 1 µM [2] | Papp A→B [3] | IC50 [4] | logD [5] | efflux ratio [6] |
| --- | --- | --- | --- | --- | --- | --- |
| Cn1cc(-c2ccnc(N3Cc4cc(C(C)(C)C)sc4C3=O)c2CO)cc(Nc2ccc(N3CCN(C4COC4)CC3)cn2)c1=O | 1 nM | 10 mL/min/kg |  |  |  |  |
| Cn1cc(-c2ccnc(N3CCc4c(sc5c4CCCC5)C3=O)c2CO)cc(Nc2ccc(N3CCN(C4COC4)CC3)cn2)c1=O | 5.97 nM | 13 mL/min/kg |  |  |  |  |
| COCCN1CCN(c2ccc(Nc3cc(-c4ccnc(N5CCn6c(cc7c6CC(C)(C)C7)C5=O)c4CO)cn(C)c3=O)nc2)CC1 | 1.2 nM | 12 mL/min/kg | 12.5 ×10⁻⁶ cm/s | 36.6 nM | 3.2 | 1 |
| C[C@@H]1CN(c2ccc(Nc3cc(-c4cc(F)cc(N5CCn6c(cc7c6CCCC7)C5=O)c4CO)cn(C)c3=O)nc2)CCN1C | 0.43 nM | 13 mL/min/kg |  | 12.7 nM | 3.3 |  |
| Cn1cc(-c2cncc(N3CCn4c(cc5c4CCCC5)C3=O)c2CO)cc(Nc2ccc(N3CCN(C4COC4)CC3)cn2)c1=O | 6.3 nM | 7.9 mL/min/kg |  | 64.4 nM | 1.9 |  |
| COCCCN1CCN(c2ccc(Nc3cc(-c4ccnc(N5CCn6c(cc7c6CC(C)(C)C7)C5=O)c4CO)cn(C)c3=O)nc2)CC1 | 1 nM | 12 mL/min/kg | 9 ×10⁻⁶ cm/s | 32.2 nM | 3.3 | 1.3 |
| Cn1cc(-c2ccnc(N3CCc4c(sc5c4CC(C)(C)C5)C3=O)c2CO)cc(Nc2ccc(N3CCN(C4COC4)CC3)cn2)c1=O | 0.58 nM | 13.5 mL/min/kg |  |  |  |  |
| C[C@H]1CN(C)CCN1c1ccc(Nc2cc(-c3cc(F)cc(N4CCn5c(cc6c5CCCC6)C4=O)c3CO)cn(C)c2=O)nc1 | 0.65 nM | 14 mL/min/kg |  | 4.6 nM | 3.2 |  |
| C[C@@H]1CN(C)CCN1c1ccc(Nc2cc(-c3cc(F)cc(N4CCn5c(cc6c5CCCC6)C4=O)c3CO)cn(C)c2=O)nc1 | 0.37 nM | 13 mL/min/kg |  | 16.9 nM | 3.1 |  |
| C[C@H]1CN(c2ccc(Nc3cc(-c4cc(F)cc(N5CCn6c(cc7c6CCCC7)C5=O)c4CO)cn(C)c3=O)nc2)CCN1C | 0.32 nM | 13 mL/min/kg |  | 27.5 nM | 2.3 |  |
| Cn1cc(-c2nccc(N3CCn4c(cc5c4CCCC5)C3=O)c2CO)cc(Nc2ccc(N3CCN(C4COC4)CC3)cn2)c1=O | 6.9 nM | 8 mL/min/kg |  | 387 nM | 1.8 |  |
| CN1CCN(c2ccc(Nc3cc(-c4cc(F)cc(N5CCn6c(cc7c6CCCC7)C5=O)c4CO)cn(C)c3=O)nc2)CC1 |  | 15 mL/min/kg |  |  | 3.1 |  |
| Cn1cc(-c2ccnc(N3CCn4c5c(c(F)c4C3=O)CCCC5)c2CO)cc(Nc2ccc(N3CCN(C4COC4)CC3)cn2)c1=O | 2.5 nM | 8.1 mL/min/kg |  |  |  |  |
| Cn1cc(-c2ccnc(N3CCn4c(cc5c4CC(C)(C)C5)C3=O)c2CO)cc(Nc2ccc(N3CCN(C4CCOCC4)CC3)cn2)c1=O | 0.45 nM | 14 mL/min/kg |  | 31.6 nM |  |  |
| CC(=O)N1CC2(C1)CN(c1ccc(Nc3cc(-c4ccnc(N5CCn6c(cc7c6CC(C)(C)C7)C5=O)c4CO)cn(C)c3=O)nc1)C2 | 3.3 nM | 10 mL/min/kg |  | 33.4 nM | 2.5 |  |
| Cn1cc(-c2ccnc(N3CCn4c(cc5c4CCCC5)C3=O)c2CO)cc(Nc2ccc(N3CCN(C4COC4)CC3)cn2)c1=O | 1.8 nM | 8.1 mL/min/kg |  | 54.9 nM | 2 |  |
| Cn1cc(-c2ccnc(N3CCn4c(cc5c4CC(C)(C)C5)C3=O)c2CO)cc(Nc2ccc(N3CCN(CCC(F)(F)F)CC3)cn2)c1=O | 4 nM | 16 mL/min/kg | 14.2 ×10⁻⁶ cm/s | 116 nM | 4.4 | 0.6 |
| Cn1cc(-c2ccnc(-n3ccn4c5c(cc4c3=O)CCCC5)c2CO)cc(Nc2ccc(N3CCN(C4COC4)CC3)cn2)c1=O | 4.2 nM | 9.2 mL/min/kg |  |  |  |  |
